This note sets out measurements from US10786580B2, “Cholecystokinin 2 receptor targeted NIR imaging and use thereof” (On Target Laboratories, LLC, priority 2016, dated 2020).

In series [1] the test system is HEK-CCK2R tumor xenograft. Nature of the series: Whole-body imaging and ex vivo tissue biodistribution in mice bearing HEK-CCK2R tumor xenografts. How it is done: FIG. 2A illustrates the overlay of whole body fluorescence image over white light images after adjusting the threshold for compound 40. HEK-CCK2R tumor xenograft bearing mice were injected with 10 nmol of […] and imaged with IVIS imager (ex=745 nm, em=ICG, exposure time=1 s) at 2 h post-injection. After imaging, selected tissues were harvested, and tissues were imaged with IVIS imager (ex=745 nm, em=ICG, exposure time=1 s).
FIG. 2C depicts the overlay of whole body fluorescence image over white light images after adjusting the threshold for compound 41. HEK-CCK2R tumor xenograft bearing mice were injected with 10 nmol of […] and imaged with IVIS imager (ex=745 nm, em=ICG, exposure time=1 s) at 2 h post-injection. After imaging, selected tissues were harvested, and tissues were imaged with IVIS imager (ex=745 nm, em=ICG, exposure time=1 s).
FIG. 5A illustrates the analysis of compound 21 overlay of whole body fluorescence image over white light images after adjusting the threshold. HEK-CCK2R tumor xenograft bearing mice were injected with 10 nmol of 21 and imaged with IVIS imager (ex=745 nm, em=ICG, exposure time=1 s) at 2 h post-injection. After imaging, selected tissues were harvested, and tissues were imaged with IVIS imager (ex=745 nm, em=ICG, exposure time=1 s).
FIG. 9 depicts a head-to-head comparison of fluorescence in the tumors from the mice injected with CCK2R-targeted-NIR dye compounds 21, 40-44. Overlay of tumor fluorescence image over white light images. HEK-CCK2R tumor xenograft bearing mice were injected with 10 nmol of requisite compound and imaged with IVIS imager at 2 h post-injection. After imaging, tumor tissues were harvested, and imaged with IVIS imager (ex=745 nm, em=ICG, exposure time=1 s).
FIG. 14E depicts the in vivo efficacy and specificity of 21 by whole-body imaging with nude mice bearing HEK-CCK2R tumors.
FIG. 14F depicts the ex vivo tissue biodistribution of mice of FIG. 14E dissecting after whole-body imaging.
Athymic female nude (nu/nu) mice (5 weeks old, 18-20 g) were purchased from Envigo (Indianapolis, Ind.) and maintained on normal rodent diet (Teklad, Wis.). Animals were housed 5/cage in a barrier, pathogen-free cloaked rack. Autoclaved tap water and food were given as needed. The animals were housed in a sterile environment on a standard 12 hour light-dark cycle for the duration of the study. […]
six-weeks-old female nu/nu mice were inoculated subcutaneously with HEK-CCK2 cells (5.0×10^6/mouse in 50% high concentrated matrigel in GIBCO medium) on the shoulder. Growth of the tumors was measured in perpendicular directions every 2 days using a caliper (body weights were monitored on the same schedule), and the volumes of the tumors were calculated as 0.5×L×W^2 (L=longest axis and W=axis perpendicular to L in millimeters). […]

The test system of series [2] is HEK-CCK2 cells. As to the kind of experiment: Epi-fluorescence microscopy of binding to CCK2R expressing HEK cells. The note with it: FIGS. 14c & d. The class given is cell-based, human. How it is done:
(§1) HEK-CCK2 cells (a human embryonic kidney cells transfected with CCK2 receptor) were a kind gift from Dr. Mark Hellmich (University of Texas Medical Branch, Galveston, Tex.) and grown as a monolayer using Dulbecco's Modified Eagles Medium (GIBCO) (Gibco, NY) 10% heat-inactivated fetal bovine serum (Atlanta Biological, GA) and 1% penicillin streptomycin (Gibco, NY) in a 5% carbon dioxide: 95% air-humidified atmosphere at 37° C. for at least six passages before they were used for the assays.

The nature of series [3]: Excitation and emission spectra. It is filed as physicochemical. The note with it: FIG. 12. An excerpt:
FIG. 12 depicts the chemical structure, excitation and emission spectra of compound 21 (OTL81).

The target of series [4] is T1, CCK2R (Homo sapiens, UniProt P32239).
T1 sequence (P32239 1-447): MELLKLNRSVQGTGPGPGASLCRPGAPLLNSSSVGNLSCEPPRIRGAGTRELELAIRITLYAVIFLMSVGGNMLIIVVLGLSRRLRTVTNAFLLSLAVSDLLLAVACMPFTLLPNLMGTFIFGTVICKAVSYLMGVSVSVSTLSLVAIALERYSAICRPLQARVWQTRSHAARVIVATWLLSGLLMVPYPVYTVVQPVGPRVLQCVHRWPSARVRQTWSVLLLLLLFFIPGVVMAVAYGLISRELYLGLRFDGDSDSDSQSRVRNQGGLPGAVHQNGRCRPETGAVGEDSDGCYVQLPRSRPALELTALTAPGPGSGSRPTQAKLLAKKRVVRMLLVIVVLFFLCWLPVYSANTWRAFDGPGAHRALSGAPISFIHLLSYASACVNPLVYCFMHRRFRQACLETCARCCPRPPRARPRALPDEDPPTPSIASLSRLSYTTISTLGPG
As to the kind of experiment: In vitro binding of CCK2R-NIR compounds to HEK-CCK2R cells (cell bound fluorescence). Also on record: expressed in transfected cells; host or cells: HEK (human embryonic kidney) cells, HEK-CCK2R, gift from Dr. Mark Hellmich (UTMB). The settings on record: for Kd: 1 h at 37° C. The method, then: FIG. 4 depicts the binding affinities of CCK2R-NIR compounds 21, 42-44 to CCK2R. CCK2R-positive HEK-CCK2R cancer cells were incubated for 1 h at 37° C. with increasing concentrations of compounds. Media was then removed, washed with fresh media three times, and replaced with PBS. Cell bound fluorescence was assayed as using fluorometer.
CCK2R-positive HEK-CCK2R cancer cells were incubated for 1 h at 37° C. with increasing concentrations of compounds. Media was then removed, washed with fresh media three times, and replaced with PBS. Cell bound fluorescence was assayed as using fluorometer.
FIG. 13 illustrates the binding affinity of […] to CCK2R. CCK2R-positive HEK-CCK2R cancer cells were incubated for 1 h at 37° C. with increasing concentrations of compound 21. Media was then removed, washed with fresh media three times, and replaced with PBS. Cell bound fluorescence was assayed as using fluorometer.
as §1
HEK cells that overexpress CCK2 were seeded into a T75 flask and allowed to form a monolayer over 48 h. After trypsin digestion, release cells were transferred into centrifuge tubes (1×10^6 cells/tube) and centrifuged. The medium was replaced with fresh medium containing increasing concentration of requisite CCK2R-Ligand-NIR dye compound in the presence or absence of 100-fold excess the ligand, a high affinity CCK2 receptor antagonist, and incubated for 1 h at 37° C. After rinsing with fresh medium (2×1.0 mL) and PBS (1×1.0 mL), cells were resuspended in PBS (1.0 mL) and cell bound fluorescence was analyzed (100,000 cells/sample) using a fluorometer (Cary, Agilent). The relative binding affinities were calculated using a plot of % cell bound fluorescence versus the log concentration of the test article using GraphPad Prism 4.

The mark [5] stands for this setting: FIG. 14, mice bearing HEK-CCK2R tumor xenografts.

Broadly, the Kd is the equilibrium constant for the complex coming apart.

Like-named read-outs stand apart in the source and are kept apart here.

Consider `CC(C)(C)C(=O)CN1C(=O)[C@H](NC(=O)Nc2cccc(C(=O)N[C@H](CCC(=O)N[C@@H](Cc3ccc(OC4=C(/C=C/C5=[N+](CCCCS(=O)(=O)[O-])c6ccc(S(=O)(=O)O)cc6C5(C)C)CCC/C4=C\C=C4\N(CCCCS(=O)(=O)O)c5ccc(S(=O)(=O)O)cc5C4(C)C)cc3)C(=O)O)C(=O)O)c2)CN(C2CCCCC2)c2ccccc21` [Compound 21, 4-(2-((E)-2-((E)-2-(4-((S)-2-carboxy-2-((R)-4-carboxy-4-(3-(3-((R)-5-cyclohexyl-1-(3,3-dimethyl-2-oxobutyl)-2-oxo-2,3,4,5-tetrahydro-1H-benzo[b][1,4]diazepin-3-yl)ureido)benzamido)butanamido)ethyl)phenoxy)-3-(2-((E)-3,3-dimethyl-5-sulfo-1-(4-sulfobutyl)indolin-2-ylidene)ethylidene)cyclohex-1-en-1-yl)vinyl)-3,3-dimethyl-5-sulfo-3H-indol-1-ium-1-yl)butane-1-sulfonate], for which, in series [1] (10 nmol, 2 h post-injection), the “fluorescence intensity in the tumors” value is on record as “very high fluorescence intensity”. For the same compound, the “tumor uptake, head-to-head comparison” value in series [1] (FIG. 9, 10 nmol, 2 h post-injection, compounds 21, 40-44) is listed as “highest tumor uptake”. In series [1] (setting [5]), the “tissue uptake (whole-body imaging and ex vivo biodistribution)” value is “solely taken up in CCK2R positive tumors with no accumulation in other tissues”; the tumor-to-background ratio entry was “very high”. For the same compound, in series [2], the “labelling of HEK-CCK2 cells” value is on record as “efficiently label”. In series [3], the Stokes shift is listed as 20 nm, the emission wavelength came out at 796 nm and the excitation wavelength stood at 776 nm. Besides, the Kd in series [4] (FIG. 13, HEK-CCK2R cells, read-out: dissociation constant (KD)) came to 1 nM. Further, the Kd in series [4] (Table 1, CCK2R-positive HEK-CCK2R cancer cells, read-out: KD) worked out at 0.67 nM. Further, the “affinity for CCK2R (in words)” value in series [4] (in vitro binding affinity data, HEK-CCK2R cells) is on record as “very high affinity”.
